# Measured values published in patent US20060004029A1, “Nitrogen-containing aromatic derivatives” (priority 2003, published 2006).
# Like-named read-outs stand apart in the source and are kept apart here.
# What was measured:
# [1] = biological target: T1, VEGFR2 (Homo sapiens, UniProt P35968); assay: Inhibition against receptor tyrosine kinase activity (HTRF), VEGFR2; type: biochemical
# T1 construct: coding for the cytoplasmic domain, beginning with lysine 791 and including the termination codon; made in house; host or cells: Sf9 insect cells, baculovirus (pFastBacHis)
# T1 sequence (P35968 786-1356 limits assumed): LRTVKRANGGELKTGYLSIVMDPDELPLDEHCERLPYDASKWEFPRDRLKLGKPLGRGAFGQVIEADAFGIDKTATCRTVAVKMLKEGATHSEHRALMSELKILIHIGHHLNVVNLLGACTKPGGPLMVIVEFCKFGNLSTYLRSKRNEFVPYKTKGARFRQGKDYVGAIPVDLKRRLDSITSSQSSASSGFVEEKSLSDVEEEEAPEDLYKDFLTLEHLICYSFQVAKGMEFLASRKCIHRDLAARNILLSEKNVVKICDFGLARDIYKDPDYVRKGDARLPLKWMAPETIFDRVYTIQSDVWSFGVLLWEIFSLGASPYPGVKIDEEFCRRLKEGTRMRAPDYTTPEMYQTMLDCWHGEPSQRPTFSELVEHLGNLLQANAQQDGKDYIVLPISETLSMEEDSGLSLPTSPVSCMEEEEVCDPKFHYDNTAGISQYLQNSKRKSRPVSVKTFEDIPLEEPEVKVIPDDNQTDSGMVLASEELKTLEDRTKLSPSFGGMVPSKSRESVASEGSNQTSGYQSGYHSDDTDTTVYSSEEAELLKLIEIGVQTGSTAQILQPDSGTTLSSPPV
# Protocol: This assay is used to determine inhibition of a test substance on tyrosine kinase activity. […] Expression in an appropriate expression system can produce a polypeptide with tyrosine kinase activity. […] The recombinant construct was transfected into insect cells (Spondoptea frugiperda9 (Sf9)) to prepare a recombinant Baculovirus.
# For expression of the VEGFR2 tyrosine kinase, Sf9 cells were infected with the VEGFR2 recombinant virus and collected after 48 hours. The collected cells were rinsed with ice-cooled phosphate buffered saline (PBS) and then resuspended using 20 ml of ice-cooled Lysis Buffer (50 mM Tris-HCl (pH 8.5), 5 mM 2-mercaptoethanol, 100 mM KCl, 1 mM phenylmethylsulfonyl fluoride, 1% (v/v) NP-40) per 1.5×10^8 cells. The suspension was centrifuged at 12,000 rpm for 30 minutes at 4° C. and the supernatant was obtained. The supernatant was added to a Ni-NTA agarose column (3 ml, purchased from Qiagen) equilibrated with Buffer A {20 mM Tris-HCl (pH 8.5), 5 mM 2-mercaptoethanol, 500 mM KCl, 20 mM imidazole, 10% (v/v) glycerol}. The column was washed with 30 ml of Buffer A, and then with 6 ml of Buffer B {20 mM Tris-HCl (pH 8.5), 5 mM 2-mercaptoethanol, 1M KCl, 10% (v/v) glycerol}, and finally with 6 ml of Buffer A. After washing, it was eluted with 6 ml of Buffer C {20 mM Tris-HCl (pH 8.5), 5 mM 2-mercaptoethanol, 100 mM KCl, 100 mM imidazole, 10% (v/v) glycerol}. The eluate was placed on a dialysis membrane (purchased from Spectrum Laboratories) and dialyzed with a dialysis buffer {20 mM Tris-HCl (pH 7.5), 10% (v/v) glycerol, 1 mM dithiothreitol, 0.1 mM Na3VO4, 0.1 mM EGTA}. […] Using the same method for the cytoplasmic domains of FGFR1, PDGFRβ and HGFR yielded respective recombinant proteins fused with 6 histidine residues at the N-terminal (His6-FGFR1, His6-PDGFRβ or His6-HGFR).
# The tyrosine kinase reaction was conducted as follows. […] Next, 10 μl of 4 μM ATP (diluted with distilled water) was added prior to incubation at 30° C. for 10 minutes, and then 10 μl of 500 mM EDTA (pH 8.0) was added.
# The tyrosine phosphorylation rate for the biotin-poly(GT) was expressed as the delta F % value as described in the HTRF Standard Experiment Methods text by CIS Diagnostics Co. The delta F % value in the presence of the test substance was determined as a ratio (%) with the delta F % value with addition of His6-VEGFR2 in the absence of the test substance defined as 100% and the delta F % value in the absence of both the test substance and His6-VEGFR2 defined as 0%.
# [2] = biological target: T2, FGFR1 (Homo sapiens, UniProt P11362); assay: Inhibition against receptor tyrosine kinase activity (HTRF), FGFR1; type: biochemical
# T2 construct: made in house; host or cells: Sf9 insect cells, baculovirus (pFastBacHis), by the same method as VEGFR2
# T2 sequence (P11362 398-822 limits assumed): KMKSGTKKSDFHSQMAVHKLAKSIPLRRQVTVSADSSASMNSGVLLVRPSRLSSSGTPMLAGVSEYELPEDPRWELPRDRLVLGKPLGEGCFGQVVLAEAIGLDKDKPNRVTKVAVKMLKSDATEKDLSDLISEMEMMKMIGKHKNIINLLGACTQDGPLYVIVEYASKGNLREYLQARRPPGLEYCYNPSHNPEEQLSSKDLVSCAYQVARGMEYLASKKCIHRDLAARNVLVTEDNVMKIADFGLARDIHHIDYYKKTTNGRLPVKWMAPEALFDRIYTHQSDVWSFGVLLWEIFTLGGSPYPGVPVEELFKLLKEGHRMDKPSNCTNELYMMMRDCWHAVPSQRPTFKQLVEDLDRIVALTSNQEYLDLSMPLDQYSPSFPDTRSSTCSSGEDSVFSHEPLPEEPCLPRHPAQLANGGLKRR
# Text: This assay is used to determine inhibition of a test substance on tyrosine kinase activity. DNA coding for the cytoplasmic domain of VEGFR2 is obtained by total cDNA synthesis (Edwards M, International Biotechnology Lab 5(3), 19-25, 1987) or by cloning. Expression in an appropriate expression system can produce a polypeptide with tyrosine kinase activity. […] For VEGFR2 (GenBank Accession No. L04947), the 1.7 kb DNA fragment described by Terman et al. (Oncogene, 6(9), 1677-1683, 1991), coding for the cytoplasmic domain, beginning with lysine 791 and including the termination codon, was isolated from a human placental cDNA library (purchased from Clontech Laboratories, Inc.) and cloned in a Baculovirus expression vector (pFastBacHis, purchased from GIBCO BRL). The recombinant construct was transfected into insect cells (Spondoptea frugiperda9 (Sf9)) to prepare a recombinant Baculovirus. (Instructions for preparation and use of recombinant Baculovirus may be found in standard texts, such as “Bac-To-Bac Baculovirus Expression System” (GIBCO BRL).) The cytoplasmic fragment starting from lysine 398 (FGFR1, GenBank Accession No. X52833), the cytoplasmic fragment starting from lysine 558 (PDGFRβ, GenBank Accession No. M21616) or the cytoplasmic fragment starting from lysine 974 (HGFR, GenBank Accession No. J02958) may be cloned and expressed by the same method for use in assays for other tyrosine kinases. EGFR was purchased from Sigma Co. (Product No. E-2645).
# For expression of the VEGFR2 tyrosine kinase, Sf9 cells were infected with the VEGFR2 recombinant virus and collected after 48 hours. The collected cells were rinsed with ice-cooled phosphate buffered saline (PBS) and then resuspended using 20 ml of ice-cooled Lysis Buffer (50 mM Tris-HCl (pH 8.5), 5 mM 2-mercaptoethanol, 100 mM KCl, 1 mM phenylmethylsulfonyl fluoride, 1% (v/v) NP-40) per 1.5×10^8 cells. The suspension was centrifuged at 12,000 rpm for 30 minutes at 4° C. and the supernatant was obtained. The supernatant was added to a Ni-NTA agarose column (3 ml, purchased from Qiagen) equilibrated with Buffer A {20 mM Tris-HCl (pH 8.5), 5 mM 2-mercaptoethanol, 500 mM KCl, 20 mM imidazole, 10% (v/v) glycerol}. The column was washed with 30 ml of Buffer A, and then with 6 ml of Buffer B {20 mM Tris-HCl (pH 8.5), 5 mM 2-mercaptoethanol, 1M KCl, 10% (v/v) glycerol}, and finally with 6 ml of Buffer A. After washing, it was eluted with 6 ml of Buffer C {20 mM Tris-HCl (pH 8.5), 5 mM 2-mercaptoethanol, 100 mM KCl, 100 mM imidazole, 10% (v/v) glycerol}. The eluate was placed on a dialysis membrane (purchased from Spectrum Laboratories) and dialyzed with a dialysis buffer {20 mM Tris-HCl (pH 7.5), 10% (v/v) glycerol, 1 mM dithiothreitol, 0.1 mM Na3VO4, 0.1 mM EGTA}. After dialysis, it was supplied for SDS-electrophoresis, and the recombinant protein (His6-VEGFR2, cytoplasmic domain of VEGFR2 fused with 6 histidine residues at the N-terminus) detected at a molecular weight of approximately 100 kDa with Coumassie Brilliant Blue staining was assayed using BSA (bovine serum albumin, purchased from Sigma Co.) as the standard substance, and stored at −80° C. until use. Using the same method for the cytoplasmic domains of FGFR1, PDGFRβ and HGFR yielded respective recombinant proteins fused with 6 histidine residues at the N-terminal (His6-FGFR1, His6-PDGFRβ or His6-HGFR).
# The tyrosine kinase reaction was conducted as follows. In the case of VEGFR2, for example, 10 μl of a kinase reaction solution {200 mM Hepes (pH 7.4), 80 mM MgCl2, 16 mM MnCl2, 2 mM Na3VO4}, 250 ng of biotin-bound poly(Glu4:Tyr1) (biotin-poly(GT), purchased from CIS Diagnostics Co.) (6 μl of a 15-fold dilution with distilled water), 15 ng of His6-VEGFR2 (10 μl of a 240-fold dilution with 0.4% BSA solution) and the test substance dissolved in dimethyl sulfoxide (4 μl of a 100-fold dilution with 0.1% BSA solution) were added into each well of a 96-well round-bottom plate (NUNC Co., Product No. 163320), to a total of 30 μl. […]
# [3] = His6-VEGFR2 cytoplasmic domain, biotin-poly(GT), HTRF, read-out: VEGFR2 kinase IC50
# [4] = His6-FGFR1 cytoplasmic domain, biotin-poly(GT), HTRF, read-out: FGFR1 kinase IC50
SMILES,"IC50 [1, 3] [nM]","IC50 [2, 4] [nM]",IC50 [1] [nM],IC50 [2] [nM]
"CNC(=O)n1ccc2cc(Oc3ccnc(NC(=O)NCC(=O)N4CCCC4)c3)ccc21 [Example 7, 5-(2-(3-(2-Oxo-2-(pyrrolidin-1-yl)ethyl)ureido)pyridin-4-yloxy)-1H-indole-1-carboxylic acid methylamide]",8,26,–,–
"CNC(=O)n1ccc2cc(Oc3ccnc(NC(=O)NCC(N)=O)c3)ccc21 [Example 11, 5-(2-(3-Carbamoylmethylureido)pyridin-4-yloxy)-1H-indole-1-carboxylic acid methylamide]",3,47,–,–
"CNC(=O)n1ccc2cc(Oc3ccnc(NC(=O)N[C@@H](CO)C(=O)N4CCCC4)c3)ccc21 [Example 18, 5-(2-(3-((1S)-1-Hydroxymethyl-2-oxo-2-pyrrolidin-1-ylethyl)ureido)pyridin-4-yloxy)-1H-indole-1-carboxylic acid methylamide]",3,70,–,–
"CNC(=O)n1ccc2cc(Oc3ccnc(NC(=O)NCCCC(=O)N4CCCC4)c3)ccc21 [Example 32, 5-(2-(3-(4-Oxo-4-(pyrrolidin-1-yl)butyl)ureido)pyridin-4-yloxy)-1H-indole-1-carboxylic acid methylamide]",9.3,16,–,–
"CNC(=O)n1ccc2cc(Oc3ccnc(NC(=O)NCCCC(=O)NC4CC4)c3)ccc21 [Example 33, 5-(2-(3-(3-(Cyclopropylcarbamoyl)propyl)ureido)pyridin-4-yloxy)-1H-indole-1-carboxylic acid methylamide]",7.1,12,–,–
"CNC(=O)n1ccc2cc(Oc3ccnc(NC(=O)NCCCC(=O)N4CCC(C)(O)CC4)c3)ccc21 [Example 34, 5-(2-(3-(4-(4-Hydroxy-4-methylpiperidin-1-yl)-4-oxobutyl)ureido)pyridin-4-yloxy)-1H-indole-1-carboxylic acid methylamide]",8.4,22,–,–
"CNC(=O)CCCNC(=O)Nc1cc(Oc2ccc3c(ccn3C(=O)NC)c2)ccn1 [Example 36, 5-(2-(3-(3-(Methylcarbamoyl)propyl)ureido)pyridin-4-yloxy)-1H-indole-1-carboxylic acid methylamide]",3.4,16,–,–
"CNC(=O)n1ccc2cc(Oc3ccnc(NC(=O)N4CCCC4)c3)ccc21 [Example 37, N1-Methyl-5-(2-(pyrrolidin-1-ylcarbonyl)amino-4-pyridyl)oxy-1H-1-indolecarboxamide]",4.8,1.2,–,–
"CNC(=O)n1ccc2cc(Oc3ccnc(NC(=O)N4CCC(=O)CC4)c3)ccc21 [Example 40, N1-methyl-5-(2-(4-oxopiperidin-1-ylcarbonyl)amino-4-pyridyl)oxy-1H-1-indolecarboxamide]",–,–,5.7,6.9
"CNC(=O)CCCC1CCN(C(=O)Nc2cc(Oc3ccc4c(ccn4C(=O)NC)c3)ccn2)CC1 [Example 43, 5-(2-(((4-(3-Methylcarbamoylpropyl)piperidin-1-yl)carbonyl)amino)pyridin-4-yloxy)-1H-indole-1-carboxylic acid methylamide]",6.4,18,–,–
"CNC(=O)n1ccc2cc(Oc3ccnc(NC(=O)N4CCC(CCCC(N)=O)CC4)c3)ccc21 [Example 44, 5-(2-(((4-(3-Carbamoylpropyl)piperidin-1-yl)carbonyl)amino)pyridin-4-yloxy)-1H-indole-1-carboxylic acid methylamide]",7.7,14,–,–
"CNC(=O)n1ccc2cc(Oc3ccnc(NC(=O)NCCCS(C)(=O)=O)c3)ccc21 [Example 50, N1-Methyl-5-(2-((3-methylsulfonylpropylamino)carbonyl)amino-4-pyridyl)-oxy-1H-1-indolecarboxamide]",5,13,–,–
"O=C(Nc1cc(Oc2ccc3c(ccn3C(=O)NC3CC3)c2)ccn1)N1CCC(N2CCCC2)CC1 [Example 68, N1-Cyclopropyl-5-(2-(((4-(pyrrolidin-1-yl)piperidin-1-yl)carbonyl)amino)pyridin-4-yloxy)-1H-1-indolecarboxamide]",37,52,–,–
"CCNC(=O)n1ccc2cc(Oc3ccnc(NC(=O)N4CCC(O)CC4)c3)ccc21 [Example 79, N1-Ethyl-5-(2-((4-hydroxypiperidin-1-yl)carbonyl)amino-4-pyridyl)oxy-1H-1-indolecarboxamide]",9.8,25,–,–
"CCNC(=O)n1ccc2cc(Oc3ccnc(NC(=O)N4CCCC4)c3)ccc21 [Example 81, N1-Ethyl-5-((2-((pyrrolidin-1-ylcarbonyl)amino)-4-pyridyl)oxy)-1H-1-indolecarboxamide]",12,38,–,–
"CCNC(=O)n1ccc2cc(Oc3ccnc(NC(=O)N4CCOCC4)c3)ccc21 [Example 82, N4-(4-((1-(Ethylamino)carbonyl-1H-5-indolyl)oxy)-2-pyridyl)-4-morpholinecarboxamide]",15,24,–,–
